Test results reported in US20230271142A1, “METHODS OF PREPARING SOLID PARTICULATE MATERIALS” (MICROPORE TECHNOLOGIES LIMITED, priority 2020, published 2023).

Assay: Particle size distribution of atorvastatin particles produced via LDC (laser diffraction)
Format: physicochemical
Description: 0.6 g of Atorvastatin was dissolved in 10 ml methanol in a beaker at room temperature to make up the organic phase. 0.5% HPMC (Mn 10,000) in DI water was used as the aqueous phase. The LDC was configured with a membrane with 10 μm pores, spaced 200 μm apart in a square grid, in a ring. The stirrer speed was set at […] (1750 rpm), and the organic phase injection rate set at 10 ml/min. The line was primed with organic phase and the CP was poured into the stirred cell. Addition was started and ended when 3 ml of DP was injected. The solution was left to stir until precipitation was visible. The crystals were analyzed via microscopy and Laser Diffraction (Beckmann Coulter LS-230).

[1] = 10 μm pores, methanol solution into 0.5% HPMC water

Span: 1.66
Volume Mean (10 μm pores): 10.24 μm
D10 [1]: 4.38 μm
D50 [1]: 8.78 μm
D90 [1]: 18.92 μm
Compound: CC(C)c1c(C(=O)Nc2ccccc2)c(-c2ccccc2)c(-c2ccc(F)cc2)n1CC[C@@H](O)C[C@@H](O)CC(=O)O [Atorvastatin]
